# According to publication PMC10690437 (Nature immunology, 2023):
# Tested on: HLA-E
# Test: HLA-E expression on PBMCs after IFNγ treatment
# Format: cell-based, human
# Conditions: PBMCs cultured with 5 ng ml^−1 IFNγ for 2 days; 3D12 flow cytometry
substance,measurement,value
"IFNγ: interferon-γ (BioLegend, PeproTech)",HLA-E surface expression on peripheral blood cells,increase in HLA-E surface expression
